Series [1] deals with HIV-1 wild-type (R8) virus. Briefly: Viral KINetics in Green cells (VIKING) assay, HIV-1 replication in MT4-GFP reporter cells. Type of series: cell-based. Put shortly: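 MT4-GFP cells infected overnight with HIV-1 R8 at MOI ~0.01, then added to compound plates in RPMI with 10% normal human serum; 10-point 3-fold dilutions (typically 4 μM-0.2 nM). Green cells counted at ~48 h and 72 h; reproductive ratio (72 h/48 h) gave % inhibition, IC50 by 4-parameter fit.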

A short description of series [2]: Aqueous solubility in PBS, pH 7.4. It is filed as physicochemical. Conditions: for solubility at 24 h: phosphate buffered saline, pH 7.4, aqueous buffer, thermodynamic from solid, pH 7.4 phosphate buffered saline, amorphous or crystalline material, read-out: Aqu. Solubility. In short, it runs like this: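 Excess solid suspended at 0.5 mg/mL in PBS pH 7.4 and stirred 24 hours. Filtrate (0.45 μm) diluted 1:1 with ACN:H2O and quantified by UPLC against a standard curve; residual solid phase checked by XRPD and PLM.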

The mark [3] stands for this setting: Human immunodeficiency virus 1, 10% normal human serum, MT4-GFP cells, HIV-1 wild-type (R8), read-out: Viking (10% NHS), IC50.

In brackets after ≈: the same amount, converted by molar mass. Like-named read-outs stand apart in the source and are kept apart here.

By IC50 is commonly meant the point on the concentration scale where inhibition reaches its midpoint. By solubility is commonly meant the dissolved amount per volume that the medium holds. In the case of `C#C[C@]1(COC(=O)CCCCC)O[C@@H](n2ccc3c(N)nc(Cl)nc32)C[C@@H]1OC(=O)CC` [Example 188], the IC50 in series [1] (setting [3]) was determined as 17 nM. In addition, the solubility at 24 h in series [2] stood at 2.4 µg/mL (≈ 5.18 µM).
For `C#C[C@]1(COC(=O)OCc2ccccc2)O[C@@H](n2ccc3c(N)nc(Cl)nc32)C[C@@H]1OC(=O)CCCCC` [Example 210], in that order: 2.9 nM and under 1 µg/mL.
`C#C[C@]1(COC(=O)CCC23CC4CC(CC(C4)C2)C3)O[C@@H](n2ccc3c(N)nc(Cl)nc32)C[C@@H]1O` [Example 62, ((2R,3S,5R)-5-(4-amino-2-chloro-7H-pyrrolo[2,3-d]pyrimidin-7-yl)-2-ethynyl-3-hydroxytetrahydrofuran-2-yl)methyl 3-(adamantan-1-yl)propanoate]: the IC50 in series [1] (setting [3]) was 3.9 nM. The solubility at 24 h in series [2] is under 1 µg/mL.
For the compound `C#C[C@]1(CO)O[C@@H](n2ccc3c(N)nc(Cl)nc32)C[C@@H]1O` [Compound A, (2R,3S,5R)-5-(4-amino-2-chloro-7H-pyrrolo[2,3-d]pyrimidin-7-yl)-2-ethynyl-2-(hydroxymethyl)tetrahydrofuran-3-ol, reference compound], the IC50 in series [1] (Human immunodeficiency virus 1, parent compound, read-out: IC50 in the Viking assay) turned out to be 3.3 nM. In series [2] (water, in water), this compound returned a solubility of 500 µg/mL (≈ 1620 µM).
`C#C[C@]1(CO)O[C@@H](n2ccc3c(N)nc(Cl)nc32)C[C@@H]1OC(=O)CC1CCCCC1` [Example 177]: the IC50 in series [1] (setting [3]) was determined as 8.5 nM. In series [2], the solubility at 24 h was under 1 µg/mL.
For `C#C[C@]1(COC(=O)OCCCCCCCCCCCCCC)O[C@@H](n2ccc3c(N)nc(Cl)nc32)C[C@@H]1O` [Example 163], in that order: 3.5 nM and under 1 µg/mL.
For `C#C[C@]1(COC(=O)Cc2ccc(Br)cc2)O[C@@H](n2ccc3c(N)nc(Cl)nc32)C[C@@H]1OC(=O)Cc1ccc(Br)cc1` [Example 227], in that order: 12 nM and under 1 µg/mL.
Take `C#C[C@]1(COC(=O)OCc2oc(=O)oc2C)O[C@@H](n2ccc3c(N)nc(Cl)nc32)C[C@@H]1O` [Example 143]: the IC50 in series [1] (setting [3]) was found to be 2.9 nM. Besides, in series [2], the solubility at 24 h was found to be 229 µg/mL (≈ 493 µM).
The corresponding values for `C#C[C@]1(CO)O[C@@H](n2ccc3c(N)nc(Cl)nc32)C[C@@H]1OC(=O)CCCOC(C)=O` [Example 178] are 3.8 nM and 143 µg/mL (≈ 327 µM).
Turning to `C#C[C@]1(COC(=O)OCCCCC[C@@H]2SC[C@@H]3NC(=O)N[C@@H]32)O[C@@H](n2ccc3c(N)nc(Cl)nc32)C[C@@H]1OC(=O)OCCCCC[C@@H]1SC[C@@H]2NC(=O)N[C@@H]21` [Example 207], the IC50 in series [1] (setting [3]) amounted to 21 nM. The solubility at 24 h in series [2] turned out to be 1.2 µg/mL (≈ 1.46 µM).
With `C#C[C@]1(COC(=O)CCCCCCCCC)O[C@@H](n2ccc3c(N)nc(Cl)nc32)C[C@@H]1OC(C)=O` [Example 48, ((2R,3S,5R)-3-acetoxy-5-(4-amino-2-chloro-7H-pyrrolo[2,3-d]pyrimidin-7-yl)-2-ethynyltetrahydrofuran-2-yl)methyl decanoate], in series [1] (setting [3]), the IC50 is 35 nM. For the same compound, the solubility at 24 h in series [2] was under 1 µg/mL.
Take `C#C[C@]1(COC(=O)CCCCCCC)O[C@@H](n2ccc3c(N)nc(Cl)nc32)C[C@@H]1O` [Example 57, ((2R,3S,5R)-5-(4-amino-2-chloro-7H-pyrrolo[2,3-d]pyrimidin-7-yl)-2-ethynyl-3-hydroxytetrahydrofuran-2-yl)methyl octanoate]: the concentration for half-maximal inhibition (IC50) in series [1] (setting [3]) is 2.6 nM. For the same compound, the solubility at 24 h in series [2] was 5 µg/mL (≈ 11.5 µM).
The corresponding values for `C#C[C@]1(COC(=O)CCCCCCCCCCCCCCC)O[C@@H](n2ccc3c(N)nc(Cl)nc32)C[C@@H]1O` [Example 16, ((2R,3S,5R)-5-(4-amino-2-chloro-7H-pyrrolo[2,3-d]pyrimidin-7-yl)-2-ethynyl-3-hydroxytetrahydrofuran-2-yl)methyl palmitate] are 5.6 nM and under 1 µg/mL.
As for `C#C[C@]1(CO)O[C@@H](n2ccc3c(N)nc(Cl)nc32)C[C@@H]1OC(=O)CCCCCCCCCCCCC` [Example 26, (2R,3S,5R)-5-(4-amino-2-chloro-7H-pyrrolo[2,3-d]pyrimidin-7-yl)-2-ethynyl-2-(hydroxymethyl)tetrahydrofuran-3-yl tetradecanoate], in series [1] (setting [3]), the half-maximal inhibitory concentration (IC50) came out at 7 nM. Moreover, the solubility at 24 h in series [2] is under 1 µg/mL.
For the compound `C#C[C@]1(CO)O[C@@H](n2ccc3c(N)nc(Cl)nc32)C[C@@H]1OC(=O)CCCCCCCCCCC` [Example 25, (2R,3S,5R)-5-(4-amino-2-chloro-7H-pyrrolo[2,3-d]pyrimidin-7-yl)-2-ethynyl-2-(hydroxymethyl)tetrahydrofuran-3-yl dodecanoate], in series [1] (setting [3]), the IC50 was 3.5 nM. The solubility at 24 h in series [2] is 2 µg/mL (≈ 4.07 µM).
In the case of `C#C[C@]1(COC(=O)Cc2ccc(F)cc2)O[C@@H](n2ccc3c(N)nc(Cl)nc32)C[C@@H]1O` [Example 37, ((2R,3S,5R)-5-(4-amino-2-chloro-7H-pyrrolo[2,3-d]pyrimidin-7-yl)-2-ethynyl-3-hydroxytetrahydrofuran-2-yl)methyl 2-(4-fluorophenyl)acetate], the IC50 in series [1] (setting [3]) turned out to be 2.3 nM. For the same compound, the solubility at 24 h in series [2] is 118 µg/mL (≈ 265 µM).
For the compound `C#C[C@]1(CO)O[C@@H](n2ccc3c(N)nc(Cl)nc32)C[C@@H]1OC(=O)CCCCCCCCC` [Example 4, (2R,3S,5R)-5-(4-amino-2-chloro-7H-pyrrolo[2,3-d]pyrimidin-7-yl)-2-ethynyl-2-(hydroxymethyl)tetrahydrofuran-3-yl decanoate], the IC50 in series [1] (setting [3]) came to 2.9 nM. For the same compound, in series [2], the solubility at 24 h was under 1 µg/mL.
Regarding `C#C[C@]1(COCOC(=O)C(C)C)O[C@@H](n2ccc3c(N)nc(Cl)nc32)C[C@@H]1O` [Example 54, (((2R,3S,5R)-5-(4-amino-2-chloro-7H-pyrrolo[2,3-d]pyrimidin-7-yl)-2-ethynyl-3-hydroxytetrahydrofuran-2-yl)methoxy)methyl isobutyrate], the concentration for half-maximal inhibition (IC50) in series [1] (setting [3]) was 1.5 nM. Further, the solubility at 24 h in series [2] was determined as 247 µg/mL (≈ 604 µM).
As to `C#C[C@]1(COC(=O)OCCCCCCCC)O[C@@H](n2ccc3c(N)nc(Cl)nc32)C[C@@H]1OC(=O)CC` [Example 113], the IC50 in series [1] (setting [3]) stood at 26 nM. Moreover, the solubility at 24 h in series [2] was under 1 µg/mL.
As to `C#C[C@]1(CO)O[C@@H](n2ccc3c(N)nc(Cl)nc32)C[C@@H]1OC(=O)Cc1ccc(F)cc1` [Example 31, (2R,3S,5R)-5-(4-amino-2-chloro-7H-pyrrolo[2,3-d]pyrimidin-7-yl)-2-ethynyl-2-(hydroxymethyl)tetrahydrofuran-3-yl 2-(4-fluorophenyl)acetate], the concentration for half-maximal inhibition (IC50) in series [1] (setting [3]) worked out at 4.6 nM. The solubility at 24 h in series [2] is 11 µg/mL (≈ 24.7 µM).
As for `C#C[C@]1(COC(=O)CCCC)O[C@@H](n2ccc3c(N)nc(Cl)nc32)C[C@@H]1OC(=O)OCC` [Example 146], the half-maximal inhibitory concentration (IC50) in series [1] (setting [3]) amounted to 19 nM. In addition, in series [2], the solubility at 24 h was determined as 7 µg/mL (≈ 15.1 µM).
In the case of `C#C[C@]1(COC(=O)OCCCCCC)O[C@@H](n2ccc3c(N)nc(Cl)nc32)C[C@@H]1O` [Example 120], the IC50 in series [1] (setting [3]) came to 3.8 nM. Besides, in series [2], the solubility at 24 h was determined as 108 µg/mL (≈ 247 µM).
With `C#C[C@]1(COC(=O)OCc2cc[nH]c(=O)c2)O[C@@H](n2ccc3c(N)nc(Cl)nc32)C[C@@H]1OC(=O)OCc1ccccc1` [Example 161], the concentration for half-maximal inhibition (IC50) in series [1] (setting [3]) came to 5.8 nM. The solubility at 24 h in series [2] is under 1 µg/mL.
As for `C#C[C@]1(COCOC(=O)c2ccccc2)O[C@@H](n2ccc3c(N)nc(Cl)nc32)C[C@@H]1O` [Example 51], in series [1] (setting [3]), the IC50 was 2.2 nM. For the same compound, the solubility at 24 h in series [2] is 309 µg/mL (≈ 698 µM).

The values above are taken from US20240287124A1, “PRODRUGS OF 4'-SUBSTITUTED NUCLEOSIDE REVERSE TRANSCRIPTASE INHIBITORS” (Merck Sharp & Dohme LLC, priority 2023, published 2024).
